From US20110244059A1, “INHIBITING OBESITY PROGRESSION BY INHIBITING ADIPOCYTE DIFFERENTIATION WITH A PRE-ADIPOCYTE AUTOPHAGY INHIBITOR” (The University of Medicine and Dentistry of New Jersey, priority 2008, published 2011)
“Also recorded” adds a separate entry of the source.

Key:
[1] = tested on: wild type MEFs
[2] = tested on: wild type primary MEFs; experiment: Adipocyte differentiation (adipogenesis) of primary MEFs under standard induction protocol; type: cell-based, mouse
Experimental: The MEFs were prepared from 13.5 days embryos of atg5+/+ and atg5−/− mice according to standard protocol. Briefly, whole mouse embryos were removed from the uterus, dissected and the head, tail, limbs and all internal organs were removed. The carcasses were minced, washed in PBS, and then incubated in 2 ml 0.05% Trypsin-EDTA (Invitrogen, CA, US) at 37° C. for 20 min with shaking. The digested cells were plated on a 100-mm dish in Dulbecco's modified Eagle's medium (DMEM, Invitrogen) with 10% fetal bovine serum (FCS, Invitrogen) and incubated at 37° C. in humidified air containing 5% CO2. Cells were grown for 24 hr until the culture was 90% confluent, and then split and passed on. The primary MEF cells of passage three to five were treated under standard protocol to induce adipocyte differentiation (Banks, A. S., et al. Deletion of SOCS7 leads to enhanced insulin action and enlarged islets of Langerhans. J. Clin. Invest. September 2005 115, 2462-2471). Briefly, cells were seeded in 6-well plates with cover slips and propagated to confluence. 48 hours later, which was designated as Day 0, differentiation was initiated using Dulbecco's Modified Eagle's Medium (DMEM) containing 10% fetal bovine serum, 5 μg/ml insulin, 1 μM dexamethasone, 0.5 mM 3-Isobutyl-1-methylxanthine (IBMX), and 10 μM troglitazone (Sigma, MO, US). After 2-day initiation, the media was replaced with a maintenance medium (DMEM containing 10% fetal bovine serum, 5 μg/ml insulin, and 10 μM troglitazone). Fresh maintenance medium was replaced every 2 days thereafter. Cells collected at various time points, up to maximal 14 days.
The medium was replaced with maintenance medium including 10 μM CQ two days after initiation. Fresh maintenance medium with 10 μM CQ was replaced every two days thereafter.
Live cells were observed under the Olympus IX70 microscope with relief contrast objectives (10× or 40×). […] For time-lapse microscopy, cells were plated on tissue culture plates and monitored using Olympus IX70 microscope with the 37° C. and 5% CO2 environmental chamber using 10× objectives. Images were collected with CCD video camera (Model MicroMax; Princeton Instruments, Trenton, N.J., US) at 5 min intervals and saved as images stacks using IPLab software (BD Biosciences Bioimaging, Rockville, Md., US). Images were processed using Image J software (NIH, Bethesda, Md., US).
Bodipy: The differentiating cells were stained with BODIPY 493/503 (Invitrogen, CA, US) as described (DiDanato, D. et al. Fixation methods for the study of lipid droplets by immunofluorescence microscopy. J Histochem. Cytochem June 2003 51, 773-780; Gocze, P. M. et al. Factors underlying the variability of lipid droplet fluorescence in MA-10 Lydig tumor cells. Cytometry 17, 151-158.) Briefly, the cell culture slides were washed once with phosphate-buffered saline (PBS), fixed with 3% paraformaldehyde in PBS for 30 minutes at room temperature, and washed 4 times with PBS, and then stained with 10 μg/ml Bodipy 493/503 at room temperature for 15 minutes in darkness, mounted with Vectashield Mounting Medium (Vector Laboratories, CA, US). Oil Red-O: The cells on cover slides were stained with Oil Red-O (Sigma, MO, US) according to Kim et al with some modification (Kim, Y. K., et al. Reversine stimulates adipocyte differentiation and downregulates Akt and p70(s6k) singaling pathways in 3T3-L1 cells. Biochem Biophys Res Commun 358, 553-558). Oil Red-O was dissolved in isopropanol to 3.5 mg/ml. Before using, dilute 6 parts Oil Red-O stock with 4 parts H2O, sit at room temp for 20 min, and filter through 0.2 μm filter. The slides were washed once with PBS, fixed with 4% paraformaldehyde (Fisher Scientific, PA, US) buffered with PBS for 1 hr, and then washed twice with 60% isopropanol for 5 minutes each. Cells were then air dried and stained with Oil Red-O working solution for 30 minutes at 25° C.

Compound | cytotoxic effect on MEFs (Tunel assay) ([1]; 10 μM chloroquine for 4 days, FIG. 9D) | lipid accumulation, Bodipy 493/503 staining ([2]; 10 μM chloroquine, 14 days after differentiation induction, FIG. 9B) | lipid accumulation, Oil Red-O staining (spectrometry) ([2]; 10 μM chloroquine, 14 days after differentiation induction, FIG. 9C) | viability of the undifferentiated cells [1] | adipocyte differentiation of primary MEFs ([2]; 1 micro molar hydroxychloroquine, lesser degree than 10 micro molar) | adipocyte differentiation of primary MEFs ([2]; 5 micro molar hydroxychloroquine, lesser degree than 10 micro molar) | adipocyte differentiation of primary MEFs ([2]; 10 micro molar hydroxychloroquine during differentiation induction) | fate of cells that did differentiate ([2]; hydroxychloroquine treatment, 10 micro molar)
CCN(CC)CCCC(C)Nc1ccnc2cc(Cl)ccc12 (centres unmarked) [chloroquine] | little cytotoxic effect; also recorded: non-toxic | same inhibitory effect | same inhibitory effect | – | – | – | – | –
CCN(CCO)CCCC(C)Nc1ccnc2cc(Cl)ccc12 (centres unmarked) [hydroxychloroquine] | – | – | – | not apparently affected | had inhibitory effect on blocking adipocyte differentiation | had inhibitory effect on blocking adipocyte differentiation | stalled at the initial stage of adipocyte differentiation | eventually died
